Results as given in patent US8580827B2 (priority 2009, dated 2013).
Converted amounts (≈) assume the structure as drawn. “Also recorded” adds a separate entry of the source. Like-named read-outs stand apart in the source and are kept apart here.

Key:
[1] = system: live vaccine strain (LVS, type B); test: microbe, parasite or virus in culture; assay type: cell-based, F. tularensis
F. novicida strain U112 = test: microbe, parasite or virus in culture; assay type: cell-based, F. tularensis subspecies novicida
[2] = system: Escherichia coli (ATCC 25922); assay type: cell-based
[3] = system: F. tularensis strain Schu S4 (type A); test: microbe, parasite or virus in culture; assay type: cell-based
[4] = system: Salmonella enterica serovar Typhimurium (ATCC 14028); assay type: cell-based
[5] = system: intracellular F. novicida in TPA-differentiated human THP-1 macrophages; assay type: cell-based
[6] = system: intracellular F. novicida in RAW264.7 murine macrophages; assay type: cell-based
[7] = system: intracellular F. tularensis (type A, Schu S4) in TPA-treated THP-1 cells; assay type: cell-based
[8] = system: RAW264.7 murine macrophage cells
[9] = Francisella tularensis, U112, 24 h

Compound Nc1ccc(-n2nc(C(F)(F)F)cc2-c2ccc(-c3ccccc3)cc2)cc1 [Compound 16, 4-(5-Biphenyl-4-yl-3-trifluoromethyl-pyrazol-1-yl)-phenylamine] has an MIC ([1]; Francisella tularensis, 48 h) of no more than 4 µg/mL and an MIC (F. novicida strain U112; [9]) of no more than 4 µg/mL.

In the case of NS(=O)(=O)c1ccc(-n2nc(C(F)(F)F)cc2-c2ccc(-c3ccc(Cl)cc3)cc2)cc1 [Compound 11, 4-[5-(4′-Chloro-biphenyl-4-yl)-3-trifluoromethyl-pyrazol-1-yl]-benzenesulfonamide], the MIC ([1]; Francisella tularensis, 48 h) is reported as no more than 4 µg/mL and the MIC (F. novicida strain U112; [9]) is reported as no more than 4 µg/mL.

With NC(=O)c1ccc(-n2nc(C(F)(F)F)cc2-c2ccc(-c3ccc(Cl)cc3)cc2)cc1 [Compound 2, 4-[5-(4′-Chloro-biphenyl-4-yl)-3-trifluoromethyl-pyrazol-1-yl]-benzamide] the MIC ([1]; Francisella tularensis, 48 h) was no more than 4 µg/mL and the MIC (F. novicida strain U112; [9]) was no more than 4 µg/mL.

With Cc1ccc(-c2cc(C(F)(F)F)nn2-c2ccc(S(N)(=O)=O)cc2)cc1 [celecoxib, 4-[5-(4-methylphenyl)-3-(trifluoromethyl)pyrazol-1-yl]benzenesulfonamide, reference compound] the “activity against E. coli” value [2] was “inactive”, the MIC ([3]; Francisella tularensis, 24 h) was 16 µg/mL (≈ 42 µM) and the “activity against S. enterica serovar Typhimurium” value [4] was “inactive”. For the same compound, the “decrease in CFU” value [1] was “≧log decrease in CFU”, the MIC ([1]; Francisella tularensis, 48 h) was 16 µg/mL (≈ 42 µM) and the “decrease in CFU” value (F. novicida strain U112) was “≧log decrease in CFU”.

In the case of Nc1ccc(-n2nc(C(F)(F)F)cc2-c2ccc(-c3ccc(Br)cc3)cc2)cc1 [Compound 20, 4-[5-(4′-Bromo-biphenyl-4-yl)-3-trifluoromethyl-pyrazol-1-yl]-phenylamine], the “activity against E. coli” value [2] is reported as “inactive”, the “inhibition of intracellular F. novicida survival” value [5] is reported as “effectively inhibits; also recorded: could inhibit the survival of intracellular Francisella” and the “inhibition of intracellular F. novicida survival” value [6] is reported as “effectively inhibits; also recorded: could inhibit the survival of intracellular Francisella”. For the same compound, the “inhibition of intracellular Schu S4 survival” value [7] was “significant inhibitory effect”, the “activity against S. enterica serovar Typhimurium” value [4] was “inactive” and the MIC ([1]; Francisella tularensis, 48 h) was no more than 4 µg/mL. For the same compound, the MIC (F. novicida strain U112; [9]) was no more than 4 µg/mL.

CS(=O)(=O)c1ccc(C2=C(c3ccccc3)C(=O)OC2)cc1 [rofecoxib] was tested, and the effect on bacteria [2] was “no appreciable effect”, the effect on bacteria [3] was “no appreciable effect” and the effect on bacteria [4] was “no appreciable effect”. The effect on bacteria [1] was “no appreciable effect” and the effect on bacteria (F. novicida strain U112) was “no appreciable effect”.

Nc1ccc(-n2nc(C(F)(F)F)cc2-c2ccc(-c3cc(Cl)c(Cl)cc3Cl)cc2)cc1 [Compound 17, 4-[5-(2′,4′,5′-Trichloro-biphenyl-4-yl)-3-trifluoromethyl-pyrazol-1-yl]-phenylamine] was tested, and the MIC [1] was “potent inhibitor” and the MIC (F. novicida strain U112) was “no measurable inhibitory effect”.

For NS(=O)(=O)c1ccc(-n2nc(C(F)(F)F)cc2-c2ccc(-c3cc(Cl)c(Cl)cc3Cl)cc2)cc1 [Compound 12, 4-[5-(2′,4′,5′-Trichloro-biphenyl-4-yl)-3-trifluoromethyl-pyrazol-1-yl]-benzenesulfonamide], the MIC (F. novicida strain U112; [9]) was no more than 4 µg/mL and the cytotoxicity for macrophages [8] was “showed cytotoxicity for macrophages”.
